US20040106683A1, “Uses of benzylideneamino guanidines as ligands to the melnocortin receptors” (priority 2001, published 2004)
pKi: −log10 of the molar value. Structures can show the parent of a compound that is named as a salt.

Tests used:
[1] = biological target: T1, recombinant human MC3 receptor (Homo sapiens, UniProt P41968); assay: Affinity for the MC3-receptor, displacement of 125I-NDP-MSH in transfected Sf9 or COS cells; conditions: nb = non-binding, i.e. no affinity, read-out: Affinity for MC-receptors, Ki, MC3
T1 construct: expressed in transfected cells; host or cells: Sf9 insect cells or COS cells
Experimental: (§1) Test 2. Affinity for the MC3-Receptors, the MC4-Receptors and the MC5-Receptors
(§2) Essentially, the affinity of the compounds for the different melanocortin receptors were determined by using either insect cells (Sf9) or COS cells, which were transfected with recombinant human MC3, MC4 or MC5 receptors. For the determination of the affinity for the MC1 receptor, B16 mouse melanoma cells were used, which endogenously express the (mouse) MC1 receptor.
(§3) Incubation was performed in 96-well plates, using 50,000 cells/well (Sf9 or COS cells) up to 200,000 cells/well (mouse melanoma cells).
(§4) After the incubation, the cells were washed twice to get rid of the excess tracer and compound, and the cells were lysed with 0.1 M NaOH. The lysate was counted in a gamma-counter, binding was calculated and the affinity determined.

[2] = biological target: T2, MC1 receptor (Mus musculus, UniProt Q01727); assay: Affinity for the MC1-receptor, displacement of 125I-NDP-MSH in B16 mouse melanoma cells; conditions: endogenous mouse MC1, nb = non-binding, i.e. no affinity, read-out: Affinity for MC-receptors, Ki, MC1
T2 construct: B16 mouse melanoma cells were used, which endogenously express the (mouse) MC1 receptor; endogenous in cells; host or cells: B16 mouse melanoma cells
Experimental: Test 1. Affinity for the MC1-Receptor
as §2, §3, §4

[3] = biological target: T3, recombinant human MC4 receptor (Homo sapiens, UniProt P32245); assay: Affinity for the MC4-receptor, displacement of 125I-NDP-MSH in transfected Sf9 or COS cells; conditions: nb = non-binding, i.e. no affinity, read-out: Affinity for MC-receptors, Ki, MC4
T3 construct: expressed in transfected cells; host or cells: Sf9 insect cells or COS cells
Experimental: as §1, §2, §3, §4

[4] = biological target: T4, recombinant human MC5 receptor (Homo sapiens, UniProt P33032); assay: Affinity for the MC5-receptor, displacement of 125I-NDP-MSH in transfected Sf9 or COS cells; conditions: nb = non-binding, i.e. no affinity, read-out: Affinity for MC-receptors, Ki, MC5
T4 construct: expressed in transfected cells; host or cells: Sf9 insect cells or COS cells
Experimental: as §1, §2, §3, §4

T2 sequence (Q01727 whole entry): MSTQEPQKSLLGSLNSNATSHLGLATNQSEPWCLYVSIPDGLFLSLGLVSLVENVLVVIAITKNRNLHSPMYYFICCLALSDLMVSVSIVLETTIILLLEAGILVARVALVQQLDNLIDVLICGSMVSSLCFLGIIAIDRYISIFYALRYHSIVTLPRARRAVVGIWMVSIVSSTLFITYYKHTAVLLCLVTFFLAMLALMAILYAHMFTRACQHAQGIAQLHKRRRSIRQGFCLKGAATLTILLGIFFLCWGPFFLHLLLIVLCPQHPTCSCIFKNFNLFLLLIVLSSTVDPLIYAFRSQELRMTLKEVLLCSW
T4 sequence (P33032 whole entry): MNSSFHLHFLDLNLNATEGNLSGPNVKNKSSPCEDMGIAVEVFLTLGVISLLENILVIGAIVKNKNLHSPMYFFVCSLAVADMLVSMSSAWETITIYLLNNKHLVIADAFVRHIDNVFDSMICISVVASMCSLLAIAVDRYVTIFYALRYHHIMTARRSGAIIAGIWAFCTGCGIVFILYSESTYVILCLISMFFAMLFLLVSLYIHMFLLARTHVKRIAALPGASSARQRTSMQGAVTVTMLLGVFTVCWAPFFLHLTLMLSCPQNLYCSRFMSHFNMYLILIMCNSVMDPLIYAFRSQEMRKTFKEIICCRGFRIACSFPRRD
T1 sequence (P41968 whole entry): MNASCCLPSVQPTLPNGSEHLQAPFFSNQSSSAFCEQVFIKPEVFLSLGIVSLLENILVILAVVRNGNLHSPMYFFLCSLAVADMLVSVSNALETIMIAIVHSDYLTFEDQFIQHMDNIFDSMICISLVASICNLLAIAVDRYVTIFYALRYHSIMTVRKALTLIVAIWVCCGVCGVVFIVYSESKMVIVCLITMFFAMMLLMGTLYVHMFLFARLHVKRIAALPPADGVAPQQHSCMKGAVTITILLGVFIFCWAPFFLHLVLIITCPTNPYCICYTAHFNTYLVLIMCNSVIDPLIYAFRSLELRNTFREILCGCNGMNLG
T3 sequence (P32245 whole entry): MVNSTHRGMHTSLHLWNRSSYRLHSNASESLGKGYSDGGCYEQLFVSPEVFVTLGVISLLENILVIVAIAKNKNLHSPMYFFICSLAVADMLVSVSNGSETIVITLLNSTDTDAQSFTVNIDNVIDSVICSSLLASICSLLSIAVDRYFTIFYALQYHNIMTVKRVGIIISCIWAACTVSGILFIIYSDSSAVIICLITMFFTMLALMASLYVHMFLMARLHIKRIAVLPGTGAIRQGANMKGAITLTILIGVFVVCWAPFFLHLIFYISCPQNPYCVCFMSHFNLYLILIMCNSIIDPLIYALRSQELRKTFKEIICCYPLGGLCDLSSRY

SMILES | pKi [1] | pKi [2] | pKi [3] | melting point | pKi [4]
N=C(N)NN=Cc1ccccc1Br [1:14, N-(2-Bromobenzylideneamino)guanidine] | 4.13 | 6.22 | 6.05 | – | –
N=C(N)NN=Cc1cc(O)ccc1Br (as salt: HCl) [1:15, N-(2-Bromo-5-Hydroxybenzylideneamino)guanidine] | – | – | – | 223 to 228 °C (dec.) | –
N=C(N)NN=Cc1cc2c(cc1[N+](=O)[O-])OCO2 (as salt: salt) [1:17, N-(4,5-Methylenedioxy-2-nitrobenzylideneamino)guanidine] | – | – | – | 205 to 212 °C (dec.) | –
N=C(N)NN=Cc1cc2c(cc1[N+](=O)[O-])OCO2 [1:17, N-(4,5-Methylenedioxy-2-nitrobenzylideneamino)guanidine] | < 3.70 | 5.68 | 4.55 | – | < 3.70
N=C(N)NN=Cc1cc(O)ccc1Br [1:15, N-(2-Bromo-5-Hydroxybenzylideneamino)guanidine] | – | 5.89 | 5.17 | – | 4.17
N=C(N)NN=Cc1cccc(Br)c1 [1:21, N-(3-Bromobenzylideneamino)guanidine] | 4.34 | 5.92 | 5.27 | – | 4.51
N=C(N)NN=Cc1cccc(Br)c1 (as salt: salt) [1:21, N-(3-Bromobenzylideneamino)guanidine] | – | – | – | 160 to 161.5 °C | –
N=C(N)NN=Cc1ccccc1Br (as salt: HCl) [1:14, N-(2-Bromobenzylideneamino)guanidine] | – | – | – | 197 to 201 °C | –
